Reference: the supplement of paper PMC10307832

Assays:
Test in all cases: relative viability (nuclei count vs DMSO), 5 days (fraction); higher = more cells survive
[1] = compound: Cn1cc(-c2cnn3c(N)c(Br)c([C@@H]4CCCNC4)nc23)cn1
How it was run: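 In 1536-well plates, lung cancer cell lines rested overnight at 37 °C before five library-drug doses (not always all listed), √10 apart, were pinned onto vehicle-anchored plates. Nuclei were counted with MetaXpress from 4× Hoechst images taken after 5 days without medium change. Viability compares treated-well with vehicle-well nuclei as a median over plates, and plates needed control CV below 25% plus at least one doubling to pass.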

[2] = compound: Cn1cc(-c2cnn3c(N)c(Br)c([C@@H]4CCCNC4)nc23)cn1 + O=C(CCCCCCC(=O)Nc1ccccc1)NO [Vorinostat] (partner 1 µM)
How it was run: (§1)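 Lung cancer cell lines were pin-tool dosed in 1536-well plates on the day after seeding, with either a lone drug or a fixed anchor-drug dose plus five library-drug doses (not always all listed) in √10 steps. Nuclei were counted on 4× images after 5 days. Relative viability is the ratio of treated-well to vehicle-well nuclei counts, with each value a median of duplicate plates.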

[3] = compound: Cn1cc(-c2cnn3c(N)c(Br)c([C@@H]4CCCNC4)nc23)cn1 + CC(=O)c1c(C)c2cnc(Nc3ccc(N4CCNCC4)cn3)nc2n(C2CCCC2)c1=O [Palbociclib] (partner 0.5 µM)
How it was run: as §1

[4] = compound: Cn1cc(-c2cnn3c(N)c(Br)c([C@@H]4CCCNC4)nc23)cn1 + CC(=O)Nc1cccc(-n2c(=O)n(C3CC3)c(=O)c3c(Nc4ccc(I)cc4F)n(C)c(=O)c(C)c32)c1 [Trametinib] (partner 0.02 µM)
How it was run: as §1

[5] = compound: Cn1cc(-c2cnn3c(N)c(Br)c([C@@H]4CCCNC4)nc23)cn1 + Cc1cc(Nc2cc(N3CCN(C)CC3)nc(Sc3ccc(NC(=O)C4CC4)cc3)n2)n[nH]1 [Tozasertib] (partner 0.1 µM)
How it was run: as §1

[6] = compound: Cn1cc(-c2cnn3c(N)c(Br)c([C@@H]4CCCNC4)nc23)cn1 + NC(=O)Nc1cc(-c2cccc(F)c2)sc1C(=O)N[C@H]1CCCNC1 [AZD7762] (partner 0.2 µM)
How it was run: as §1

[7] = compound: Cn1cc(-c2cnn3c(N)c(Br)c([C@@H]4CCCNC4)nc23)cn1 + CCNC(=O)c1noc(-c2cc(C(C)C)c(O)cc2O)c1-c1ccc(CN2CCOCC2)cc1 [Luminespib] (partner 0.01 µM)
How it was run: as §1

[8] = compound: Cn1cc(-c2cnn3c(N)c(Br)c([C@@H]4CCCNC4)nc23)cn1 + COc1cccc2cc(-c3nc([C@H]4CC[C@H](C(=O)O)CC4)n4ncnc(N)c34)[nH]c12 [OSI-027] (partner 0.5 µM)
How it was run: as §1

[9] = compound: Cn1cc(-c2cnn3c(N)c(Br)c([C@@H]4CCCNC4)nc23)cn1 + O=C(c1cc(Cc2n[nH]c(=O)c3ccccc23)ccc1F)N1CCN(C(=O)C2CC2)CC1 [Olaparib] (partner 8 µM)
How it was run: as §1

[10] = compound: Cn1cc(-c2cnn3c(N)c(Br)c([C@@H]4CCCNC4)nc23)cn1 + Nc1nc2[nH]cc(CCc3ccc(C(=O)N[C@@H](CCC(=O)O)C(=O)O)cc3)c2c(=O)[nH]1 [Pemetrexed] (partner 0.2 µM)
How it was run: as §1

[11] = compound: Cn1cc(-c2cnn3c(N)c(Br)c([C@@H]4CCCNC4)nc23)cn1 + COc1cc2c(Oc3ccc(NC(=O)C4(C(=O)Nc5ccc(F)cc5)CC4)cc3F)ccnc2cc1OCCCN1CCOCC1 [Foretinib] (partner 0.25 µM)
How it was run: as §1

[12] = compound: Cn1cc(-c2cnn3c(N)c(Br)c([C@@H]4CCCNC4)nc23)cn1 + N=C(N)NC(=N)NCCc1ccccc1 [Phenformin] (partner 250 µM)
How it was run: as §1

[13] = compound: Cn1cc(-c2cnn3c(N)c(Br)c([C@@H]4CCCNC4)nc23)cn1 + Nc1ncn([C@H]2C[C@H](O)[C@@H](CO)O2)c(=O)n1 [Decitabine] (partner 2 µM)
How it was run: as §1

[14] = compound: Cn1cc(-c2cnn3c(N)c(Br)c([C@@H]4CCCNC4)nc23)cn1 + Cc1nc(Nc2ncc(C(=O)Nc3c(C)cccc3Cl)s2)cc(N2CCN(CCO)CC2)n1 [Dasatinib] (partner 0.075 µM)
How it was run: as §1

Cell Line: NCI-H2342
- relative viability ([1]; 0.05 µM): 0.974
- relative viability ([1]; 0.1581 µM): 1.23
- relative viability ([1]; 0.5 µM): 1.05
- relative viability ([1]; 1.581 µM): 0.947
- relative viability ([1]; 5 µM): 0.91
- relative viability ([2]; first compound 0.05 µM): 0.636
- relative viability ([2]; first compound 0.1581 µM): 0.8
- relative viability ([2]; first compound 0.5 µM): 0.824
- relative viability ([2]; first compound 1.581 µM): 0.68
- relative viability ([2]; first compound 5 µM): 0.712
- relative viability ([3]; first compound 0.05 µM): 0.531
- relative viability ([3]; first compound 0.1581 µM): 0.55
- relative viability ([3]; first compound 0.5 µM): 0.446
- relative viability ([3]; first compound 1.581 µM): 0.56
- relative viability ([3]; first compound 5 µM): 0.507
- relative viability ([4]; first compound 0.05 µM): 0.801
- relative viability ([4]; first compound 0.1581 µM): 0.9
- relative viability ([4]; first compound 0.5 µM): 0.682
- relative viability ([4]; first compound 1.581 µM): 0.835
- relative viability ([4]; first compound 5 µM): 0.777
- relative viability ([5]; first compound 0.05 µM): 0.547
- relative viability ([5]; first compound 0.1581 µM): 0.522
- relative viability ([5]; first compound 0.5 µM): 0.531
- relative viability ([5]; first compound 1.581 µM): 0.52
- relative viability ([5]; first compound 5 µM): 0.408
- relative viability ([6]; first compound 0.05 µM): 0.493
- relative viability ([6]; first compound 0.1581 µM): 0.491
- relative viability ([6]; first compound 0.5 µM): 0.542
- relative viability ([6]; first compound 1.581 µM): 0.487
- relative viability ([6]; first compound 5 µM): 0.29
- relative viability ([7]; first compound 0.05 µM): 0.764
- relative viability ([7]; first compound 0.1581 µM): 0.88
- relative viability ([7]; first compound 0.5 µM): 0.773
- relative viability ([7]; first compound 1.581 µM): 0.708
- relative viability ([7]; first compound 5 µM): 0.615
- relative viability ([8]; first compound 0.05 µM): 0.52
- relative viability ([8]; first compound 0.1581 µM): 0.632
- relative viability ([8]; first compound 0.5 µM): 0.585
- relative viability ([8]; first compound 1.581 µM): 0.526
- relative viability ([8]; first compound 5 µM): 0.593
- relative viability ([9]; first compound 0.05 µM): 0.467
- relative viability ([9]; first compound 0.1581 µM): 0.585
- relative viability ([9]; first compound 0.5 µM): 0.448
- relative viability ([9]; first compound 1.581 µM): 0.463
- relative viability ([9]; first compound 5 µM): 0.438
- relative viability ([10]; first compound 0.05 µM): 0.867
- relative viability ([10]; first compound 0.1581 µM): 0.846
- relative viability ([10]; first compound 0.5 µM): 0.762
- relative viability ([10]; first compound 1.581 µM): 0.788
- relative viability ([10]; first compound 5 µM): 0.778
- relative viability ([11]; first compound 0.05 µM): 1.13
- relative viability ([11]; first compound 0.1581 µM): 1.19
- relative viability ([11]; first compound 0.5 µM): 1.09
- relative viability ([11]; first compound 1.581 µM): 0.92
- relative viability ([11]; first compound 5 µM): 1.07
- relative viability ([12]; first compound 0.05 µM): 0.578
- relative viability ([12]; first compound 0.1581 µM): 0.6
- relative viability ([12]; first compound 0.5 µM): 0.682
- relative viability ([12]; first compound 1.581 µM): 0.533
- relative viability ([12]; first compound 5 µM): 0.593
- relative viability ([13]; first compound 0.05 µM): 0.728
- relative viability ([13]; first compound 0.1581 µM): 0.731
- relative viability ([13]; first compound 0.5 µM): 0.696
- relative viability ([13]; first compound 1.581 µM): 0.639
- relative viability ([13]; first compound 5 µM): 0.742
- relative viability ([14]; first compound 0.05 µM): 0.31
- relative viability ([14]; first compound 0.1581 µM): 0.3
- relative viability ([14]; first compound 0.5 µM): 0.345
- relative viability ([14]; first compound 1.581 µM): 0.336
- relative viability ([14]; first compound 5 µM): 0.28

Cell Line: NCI-H1623
- relative viability ([1]; 0.05 µM): 0.984
- relative viability ([1]; 0.1581 µM): 0.9
- relative viability ([1]; 0.5 µM): 1.04
- relative viability ([1]; 1.581 µM): 0.942
- relative viability ([1]; 5 µM): 0.755
- relative viability ([5]; first compound 0.05 µM): 0.425
- relative viability ([5]; first compound 0.1581 µM): 0.421
- relative viability ([5]; first compound 0.5 µM): 0.467
- relative viability ([5]; first compound 1.581 µM): 0.41
- relative viability ([5]; first compound 5 µM): 0.38
- relative viability ([7]; first compound 0.05 µM): 0.41
- relative viability ([7]; first compound 0.1581 µM): 0.399
- relative viability ([7]; first compound 0.5 µM): 0.538
- relative viability ([7]; first compound 1.581 µM): 0.851
- relative viability ([7]; first compound 5 µM): 0.322
- relative viability ([8]; first compound 0.05 µM): 0.426
- relative viability ([8]; first compound 0.1581 µM): 0.456
- relative viability ([8]; first compound 0.5 µM): 0.407
- relative viability ([8]; first compound 1.581 µM): 0.418
- relative viability ([8]; first compound 5 µM): 0.382
- relative viability ([11]; first compound 0.05 µM): 0.811
- relative viability ([11]; first compound 0.1581 µM): 0.831
- relative viability ([11]; first compound 0.5 µM): 0.97
- relative viability ([11]; first compound 1.581 µM): 0.844
- relative viability ([11]; first compound 5 µM): 0.606
- relative viability ([12]; first compound 0.05 µM): 0.561
- relative viability ([12]; first compound 0.1581 µM): 0.628
- relative viability ([12]; first compound 0.5 µM): 0.632
- relative viability ([12]; first compound 1.581 µM): 0.567
- relative viability ([12]; first compound 5 µM): 0.432
- relative viability ([14]; first compound 0.05 µM): 0.475
- relative viability ([14]; first compound 0.1581 µM): 0.474
- relative viability ([14]; first compound 0.5 µM): 0.536
- relative viability ([14]; first compound 1.581 µM): 0.477
- relative viability ([14]; first compound 5 µM): 0.399
